From ChEMBL document CHEMBL1130852, “In vitro evaluation and crystallographic analysis of a new class of selective, non-amide-based thrombin inhibitors” (Bioorg Med Chem Lett, 1998)
Where “and” joins values, the source holds several entries; their conditions need not be identical. Equal values may be shown once.

What was measured:
[1] = biological target: Plasminogen (Homo sapiens, UniProt P00747); assay: Compound was tested in vitro for its ability to inhibit serine protease plasmin using tosyl-Gly-Pro-Lys-p-nitroanilide as substrate
Chain of Plasminogen (P00747 97-580 limits assumed): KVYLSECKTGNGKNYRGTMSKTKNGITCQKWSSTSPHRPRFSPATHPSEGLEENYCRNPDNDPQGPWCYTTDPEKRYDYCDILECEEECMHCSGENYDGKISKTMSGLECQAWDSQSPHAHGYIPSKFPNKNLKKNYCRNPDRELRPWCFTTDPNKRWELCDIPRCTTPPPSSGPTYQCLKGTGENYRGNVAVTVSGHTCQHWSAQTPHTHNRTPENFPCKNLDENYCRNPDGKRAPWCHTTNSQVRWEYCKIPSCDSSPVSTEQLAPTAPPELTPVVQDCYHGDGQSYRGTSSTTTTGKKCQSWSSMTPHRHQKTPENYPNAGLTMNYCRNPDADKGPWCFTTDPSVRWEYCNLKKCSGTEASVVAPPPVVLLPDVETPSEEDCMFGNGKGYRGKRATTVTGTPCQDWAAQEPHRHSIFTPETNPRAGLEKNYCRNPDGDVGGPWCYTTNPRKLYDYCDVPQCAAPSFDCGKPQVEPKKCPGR
Chain of Plasminogen (P00747 581-810 limits assumed): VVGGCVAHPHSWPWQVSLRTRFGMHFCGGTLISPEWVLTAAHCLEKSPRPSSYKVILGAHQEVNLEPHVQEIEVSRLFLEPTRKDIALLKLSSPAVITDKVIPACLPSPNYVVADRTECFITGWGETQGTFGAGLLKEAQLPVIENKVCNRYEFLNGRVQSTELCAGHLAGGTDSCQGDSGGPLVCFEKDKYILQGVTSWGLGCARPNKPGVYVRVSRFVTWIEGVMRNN

[2] = biological target: Coagulation factor X (Homo sapiens, UniProt P00742); assay: Compound was tested in vitro for its ability to inhibit serine protease factor Xa using benzoyl-Ile-Glu-Gly-Arg-p-nitroanilide as substrate
Chain of Coagulation factor X (P00742 41-179 limits assumed): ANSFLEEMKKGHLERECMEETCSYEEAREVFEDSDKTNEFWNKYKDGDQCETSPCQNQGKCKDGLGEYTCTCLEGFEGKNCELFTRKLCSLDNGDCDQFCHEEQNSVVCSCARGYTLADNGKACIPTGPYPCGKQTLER
Chain of Coagulation factor X (P00742 235-488 limits assumed): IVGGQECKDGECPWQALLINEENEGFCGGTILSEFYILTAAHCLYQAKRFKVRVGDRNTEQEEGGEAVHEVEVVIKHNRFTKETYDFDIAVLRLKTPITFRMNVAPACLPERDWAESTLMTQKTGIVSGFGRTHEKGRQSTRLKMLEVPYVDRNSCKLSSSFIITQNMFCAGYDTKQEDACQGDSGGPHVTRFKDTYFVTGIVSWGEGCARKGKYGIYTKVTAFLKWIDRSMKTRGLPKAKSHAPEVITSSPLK

[3] = biological target: Prothrombin (Homo sapiens, UniProt P00734); assay: Compound was tested in vitro for its ability to inhibit serine protease thrombin using […] as substrate
[4] = Compound was tested in vitro for its ability to inhibit serine protease elastase using suc-Ala-Ala-Pro-Val-p-nitroanilide as substrate
[5] = biological target: Urokinase-type plasminogen activator (Homo sapiens, UniProt P00749); assay: (§1) Compound was tested in vitro for its ability to inhibit serine protease urokinase using carbobenzyloxy-Phe-Val-Arg-p-nitroanilide as substrate
[6] = system: CC(C)[C@H](NC(=O)[C@H](Cc1ccccc1)NC(=O)OCc1ccccc1)C(=O)N[C@@H](CCCN=C(N)N)C(=O)Nc1ccc([N+](=O)[O-])cc1; assay: as §1
[7] = compound: CC(C)[C@H](NC(=O)[C@H](Cc1ccccc1)NC(=O)c1ccccc1)C(=O)N[C@@H](CCCN=C(N)N)C(=O)Nc1ccc([N+](=O)[O-])cc1; assay: Compound was tested in vitro for its ability to inhibit serine protease trypsin using benzoyl-Phe-Val-Arg-p-nitroanilide as substrate; details: Bos taurus
[8] = compound: C[C@H](NC(=O)CCC(=O)O)C(=O)N[C@@H](C)C(=O)N1CCC[C@H]1C(=O)N[C@@H](Cc1ccccc1)C(=O)Nc1ccc([N+](=O)[O-])cc1; assay: Compound was tested in vitro for its ability to inhibit serine protease Chymotrypsinogen using suc-Ala-Ala-Pro-Phe-p-nitroanilide as substrate

Cc1cc(OCC2CCN(C(=N)N)CC2)cc(OS(=O)(=O)c2ccccc2Cl)c1 showed a Ki [1] of over 200 µM, a Ki [2] of 80 µM and a Ki [3] of 0.0046 µM. It also gave a Ki [4] of over 200 µM and a Ki [5] of over 200 µM.

Cc1cc(OCCCCCN=C(N)N)cc(OS(=O)(=O)c2ccccc2Cl)c1 gave a Ki [1] of over 200 µM, a Ki [2] of 120 µM and a Ki [3] of 0.26 µM. The Ki [4] was over 200 µM and the Ki [5] was over 200 µM.

With “Urokinase-type plasminogen activator (Homo sapiens) (from UniProt P00749)” the Km [6] was 190 µM and 170 µM.

In the case of Cc1cc(OCCCCN=C(N)N)cc(OS(=O)(=O)c2ccccc2Cl)c1, the Ki [1] is reported as over 200 µM, the Ki [2] is reported as 110 µM and the Ki [4] is reported as over 200 µM. The Ki [5] was over 200 µM.

For Cc1cc(OCCN(C)c2ccncc2)cc(OS(=O)(=O)c2ccccc2Cl)c1, the Ki [1] was over 200 µM, the Ki [2] was 160 µM and the Ki [4] was over 200 µM. For the same molecule, the Ki [5] was over 200 µM.

Molecule Cc1cc(OCC2CCCN(C(=N)N)C2)cc(OS(=O)(=O)c2ccccc2Cl)c1 (stereo unspecified) has a Ki [1] of over 200 µM, a Ki [2] of 29 µM and a Ki [3] of 0.32 µM. For the same molecule, the Ki [4] was over 200 µM and the Ki [5] was over 200 µM.

Work on Cc1cc(OCCCN=C(N)N)cc(OS(=O)(=O)c2ccccc2Cl)c1 yielded a Ki [1] of over 200 µM, a Ki [2] of over 200 µM and a Ki [3] of 0.033 µM. The Ki [4] was over 200 µM and the Ki [5] was over 200 µM.

B1: Serine protease 1 (Bos taurus), P00760 (protein)
chain: MKTFIFLALLGAAVAFPVDDDDKIVGGYTCGANTVPYQVSLNSGYHFCGGSLINSQWVVSAAHCYKSGIQVRLGEDNINVVEGNEQFISASKSIVHPSYNSNTLNNDIMLIKLKSAASLNSRVASISLPTSCASAGTQCLISGWGNTKSSGTSYPDVLKCLKAPILSDSSCKSAYPGQITSNMFCAGYLEGGKDSCQGDSGGPVVCSGKLQGIVSWGSGCAQKNKPGVYTKVCNYVSWIKQTIASN
For B1, the Km [7] was 160 µM and 100 µM.

B2: Chymotrypsin-C (Homo sapiens), Q99895 (protein)
chain: MLGITVLAALLACASSCGVPSFPPNLSARVVGGEDARPHSWPWQISLQYLKNDTWRHTCGGTLIASNFVLTAAHCISNTRTYRVAVGKNNLEVEDEEGSLFVGVDTIHVHKRWNALLLRNDIALIKLAEHVELSDTIQVACLPEKDSLLPKDYPCYVTGWGRLWTNGPIADKLQQGLQPVVDHATCSRIDWWGFRVKKTMVCAGGDGVISACNGDSGGPLNCQLENGSWEVFGIVSFGSRRGCNTRKKPVVYTRVSAYIDWINEKMQL
For B2, the Km [8] was 60 µM and 100 µM.
